The values below come from US11912994B2 (The General Hospital Corporation, priority 2015, dated 2024).

What all share (type): cell-based, mouse
In series [1] the test system is GFP transgene on the inactive X (Xi-TgGFP fibroblasts). In words: Assay for the reactivation of Xi-TgGFP (GFP RT-qPCR). The note with it: single drug 0.3 μM, shControl. The text has this:
Xi-TgGFP (68-5-11) tail-tip fibroblasts (TTF) were initially derived from a single female pup, a daughter of a cross between aM castaneus male and aM musculus female, homozygous for an X-linked GFP transgene driven by a strong, ubiquitous promoter (58). The fibroblasts were immortalized by SV40 transformation, and clonal lines were derived from individual GFP-negative cells selected by fluorescence-activated cell sorting. In our experience, occasional clones with undetectable GFP expression nevertheless have the transgene located on the active X chromosome.
A cocktail of 3 shRNA viruses were used for infections (Table 2) followed with puromycin selection using standard methodology. In all the experiments, polyclonal knock down cells were used.
RNA was isolated by Trizol twice, with an intermittent TurboDNase treatment after the first isolation for 30 min at 37° C. One μg RNA was used for each of the RT+ and RT− reactions (Superscript III, Invitrogen) followed by the SYBR green qPCR using the primers listed in Table 3, with annealing temperature of 60° C. for 45 cycles. The relative efficiency of Xi-TgGFP reactivations was calculated by comparing to U1 snRNA as the internal control.
In general terms: Quantitative PCR measures a nucleic acid by following its amplification.

Series [2] can be described thus: Drug concentration relative to IC50 / toxicity in fibroblasts. The note with it: 0.3 μM.
Series [3] concerns Mecp2 on the Xi (Mecp2:luciferase fusion). In words: Luciferase screen in Mecp2-Luc fusion Xi cell line. The protocol:
To determine whether an LNA targeting XIST could also be used in addition to or as an alternative to an agent described herein, experiments were performed in the following cells: immortalized monoclonal MEFs with the reporter GFP (Bird) or LUC (Bedalov) fused to Mecp2, on the Xi or Xa, immortalized human fibroblasts from a […] with Rett syndrome (Coriell) and primary mouse cortical neurons.
The LNAs were designed with the Exiqon web tool. Xist LNA for mouse ([…]; SEQ ID NO:50) targets exon 1 between rep C and rep D. The human Xist LNAs target the following sequences: A1: […]; SEQ ID NO:51; A2: […]; SEQ ID NO:52; A3: […]; SEQ ID NO:53. […] 5-azadeoxycitidine (in DMSO) was added to a final concentration of 0.5 μM (except in the titration experiment 0.1-2.5 μM).
Luciferase experiments were performed on a Microbeta2 LumiJet with a luciferase assay system (Promega). […] Afterwards, the cells were trypsinized, washed, and lysed using cell culture lysis reagent. Normalized measurements were performed in 96 well plates, during 10 seconds after a 2 second incubation period.

The mark [4] stands for this setting: trial 1, 20 uM LNA, 0.5 uM aza, 3 days, 1 10^5 cells/ml, 24-well.

With `Nc1ncn([C@@H]2O[C@H](CO)[C@@H](O)[C@H]2O)c(=O)n1` [5′-azacytidine, 4-amino-1-beta-D-ribofuranosyl-s-triazin-2(1H)-one], the “GFP reactivation” value in series [1] is listed as “minimally reactivated GFP”. In addition, the “Toxicity at the concentration used” value in series [2] was “nontoxic”.

Consider `Nc1ncn([C@H]2C[C@H](O)[C@@H](CO)O2)c(=O)n1` [AzadC, 5-aza-2′-deoxycytidine], for which the “Reactivation together with Xist LNA” value in series [3] (added to Xist LNA, 0.5 μM, reporter not specified) was “Synergistic reactivation”.

In the case of `COc1cc([C@@H]2c3cc4c(cc3[C@@H](O[C@@H]3O[C@@H]5CO[C@@H](C)O[C@H]5[C@H](O)[C@H]3O)[C@H]3COC(=O)[C@H]23)OCO4)cc(OC)c1O` [etoposide], in series [1], the “GFP reactivation” value is “minimally reactivated GFP”.

In the case of “xist: Xist LNA for mouse (TCTTGGTTACTAACAG; SEQ ID NO:50), targets exon 1 between rep C and rep D (LNA-modified, pattern not given here)”, in series [3] (setting [4]), the LCPS is given as 0 and the “raw CPS” value is reported as 29.8.
